Measurements as given in US20060104978A1, “Methods and compositions for PDGF-C activation and inhibition” (LUDWIG INSTITUTE FOR CANCER RESEARCH, priority 2003, published 2006).
Each block holds one compound with its values, some of them ahead of it.

Key:
[1] = system: tPA; test: Processing of endogenous PDGF-CC by growing AG1523 cells with tPA inhibitors in serum-free medium; format: cell-based, human; conditions: tPA-STOP 3.5-35 μM, aprotinin 100 μM in serum-free medium of AG1523 cells; immunoblot
Protocol: (§1) All protease inhibitors were purchased from Sigma and the concentrations used were as follows: AEBSF 1 mM, bestatin 100 μM, leupeptin 100 μM, pepstatin A 10 μM, E64 100 μM, aprotinin 100 μM (˜3 TIU), EDTA 50 mM, and phosphoramidon 100 μM. The protease inhibitors were preincubated with conditioned AG1523 medium at room temperature for 30 min, and then incubated with recombinant PDGF-CC (ratio 10:2) at 37° C. overnight. Recombinant PDGF-CC species were analyzed by immunoblotting as above. To determine whether tPA is the major proteolytic enzyme responsible for the PDGF-CC processing in AG1523 conditioned medium, AG1523 cells were cultured in serum-free medium, with or without the addition of a synthetic tPA inhibitor tPA-STOP™ (3.5-35 μM, #544, American Diagnostica Inc.) or 100 μM aprotinin as a positive control. The conditioned serum-free medium was collected, and proteins were precipitated before SDS-PAGE and immunoblotting using antibodies against PDGF-C (see above).

[2] = system: secreted protease(s) present in the conditioned media from AG1523 cells; test: In vitro cleavage of recombinant latent PDGF-CC by AG1523 conditioned medium, protease inhibitor profile; format: biochemical, human; conditions: inhibitor preincubated 30 min with AG1523 medium, then recombinant PDGF-CC 37° C. overnight; AEBSF 1 mM, leupeptin 100 μM, aprotinin 100 μM; immunoblot
Protocol: In an in vitro assay, the properties of the enzyme(s) involved in cleavage and activation of PDGF-CC were studied by mixing serum-free conditioned media from AG1523 cells with His6-tagged recombinant full-length PDGF-CC.
The class of enzyme(s) responsible for cleavage and activation of latent PDGF-CC was established by generating an enzyme inhibitor profile of the enzymatic activity (FIG. 1E). Eight different protease inhibitors (see FIG. 1F) were separately preincubated with conditioned media from AG1523 cells, and then incubated with His6-tagged recombinant full-length PDGF-CC.
as §1

[3] = system: tPA; test: Ni-NTA pull-down of purified tPA by His6-tagged recombinant proteins; format: binding, human; conditions: Ni-NTA beads coated with His6-tagged protein, 1 μg purified tPA, 2 hours room temperature, eluted with imidazole
Protocol: The possibility of a direct protein-protein interaction between tPA and latent PDGF-CC was explored by developing a pull-down assay. Ni-NTA beads were allowed to bind recombinant His6-tagged latent PDGF-CC or PDGF-DD, and purified tPA was added and incubated. Following extensive washings, bound proteins were subsequently eluted with an imidazole-containing buffer, and the eluates were analyzed by immunoblotting using specific antibodies.
To determine a direct protein-protein interaction between tPA and PDGF-CC, His6-tagged recombinant protein species were bound to Ni-NTA-agarose (Qiagen) and then incubated with 1 μg of purified tPA for 2 hours at room temperature. Uncoated and PDGF-DD coated Ni-NTA beads were used as controls. The beads were washed thoroughly, and His6-tagged proteins were specifically eluted with 400 mM imidazole. Eluted proteins were analyzed by SDS-PAGE under reducing conditions and immunoblotted with antibodies against human tPA (see above). The membranes were subsequently stripped and reprobed with specific antibodies.
Target sequence in this assay (P00750 36-562): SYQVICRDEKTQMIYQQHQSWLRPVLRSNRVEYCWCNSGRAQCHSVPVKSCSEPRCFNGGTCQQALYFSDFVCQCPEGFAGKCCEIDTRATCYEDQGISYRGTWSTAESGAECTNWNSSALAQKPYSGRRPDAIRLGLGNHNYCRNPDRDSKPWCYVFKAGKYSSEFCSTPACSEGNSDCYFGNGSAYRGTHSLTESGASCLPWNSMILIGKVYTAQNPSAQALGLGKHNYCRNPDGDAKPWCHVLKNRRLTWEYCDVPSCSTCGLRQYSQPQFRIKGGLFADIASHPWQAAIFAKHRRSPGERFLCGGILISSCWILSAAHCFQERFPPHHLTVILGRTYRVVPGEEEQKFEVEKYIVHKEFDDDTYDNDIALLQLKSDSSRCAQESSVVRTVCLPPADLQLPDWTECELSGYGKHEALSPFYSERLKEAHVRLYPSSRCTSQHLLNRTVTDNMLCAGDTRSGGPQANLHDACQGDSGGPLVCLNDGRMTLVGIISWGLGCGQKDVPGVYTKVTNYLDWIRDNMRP

Compound: Cl.Cl.N=C(N)c1ccc(C=C2CCCCC(=Cc3ccc(C(=N)N)cc3)C2=O)cc1 [tPA-STOP™]
inhibition of processing of endogenous full-length PDGF-CC [1]: in a dose-dependent way, prevented processing of full-length PDGF-CC

Compound: NCCc1ccc(S(=O)(=O)F)cc1 [AEBSF]
inhibition of proteolytic cleavage of latent PDGF-CC [2]: inhibited the proteolytic cleavage of latent PDGF-CC

Compound: aprotinin
inhibition of proteolytic cleavage of latent PDGF-CC [2]: inhibited the proteolytic cleavage of latent PDGF-CC
inhibition of processing of endogenous full-length PDGF-CC [1]: efficiently inhibited processing of latent PDGF-CC

Compound: CC(=O)N[C@@H](CC(C)C)C(=O)N[C@@H](CC(C)C)C(=O)N[C@H](C=O)CCCNC(=N)N [leupeptin]
inhibition of proteolytic cleavage of latent PDGF-CC [2]: inhibited the proteolytic cleavage of latent PDGF-CC

binding of tPA in pull-down [3]: failed to do so
Compound: PDGF-DD: recombinant His6-tagged latent full-length PDGF-DD
